BindingDB's records for patent US20240383915 (Genentech, 2024)

Target: GTPase KRas (Homo sapiens, UniProt P01116)
Assay: KRAS Biochemical Assay
Method: KRAS Biochemical Assay—BODIPY-GDP Exchange TR-FRET. Biochemical compound potencies were assessed by evaluating inhibition of SOS1-mediated nucleotide exchange in KRAS G12D. The SOS1-promoted exchange of fluorescently-labeled GDP (BODIPY-GDP) was monitored by time-resolved fluorescence resonance energy transfer (TR-FRET). Compounds solubilized in DMSO were dispensed as concentration series into 384-well white assay plates. […] The reaction was initiated with the addition of 5 μL of 3 nM recombinant human SOS1 and 300 nM BODIPY-GDP in assay buffer. […] The TR-FRET ratio was determined as the fluorescence at 520 nm divided by the fluorescence at 490 nm multiplied by 10,000. […] The normalized TR-FRET results were plotted against compound concentration, and the data fit to a 4-parameter Hill equation to determine the IC50 values.

GTPase KRas, sequence (P01116 whole entry): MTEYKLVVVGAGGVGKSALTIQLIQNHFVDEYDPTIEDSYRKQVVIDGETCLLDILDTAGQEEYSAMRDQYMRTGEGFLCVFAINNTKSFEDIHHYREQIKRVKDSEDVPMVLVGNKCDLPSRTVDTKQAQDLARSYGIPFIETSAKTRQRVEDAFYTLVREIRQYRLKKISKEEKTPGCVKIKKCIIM

IC50: 0.87 nM
SMILES: Cc1cc(N)nc(-c2c(Cl)c3c4c(nc(OCC56CC(CO5)C6)nc4c2F)N([C@H](C)c2cccnc2N)CCO3)c1C(F)(F)F [US20240383915, Example 143]
